This is an account of results in patent US20240218022A1, “ANTI-VISTA MACROCYCLIC PEPTIDES AND COMPOSITIONS” (BRISTOL-MYERS SQUIBB COMPANY, priority 2022, published 2024).

pIC50: −log10 of the molar value. Starred links: 1 amine or outer side, 2 acyl side, 3 side chain; linkers in the order of their positions; H or OH if unused. Positions of bridges follow the written chain, without caps; N, C: chain ends. Non-standard residues stand in square brackets, D forms with d. Residues, ends and D or L forms follow the SMILES beside them. γGlu = O=C(O)[C@H](CCC(=O)[*:2])N[*:1]; 2Nal = N[C@@H](Cc1ccc2ccccc2c1)C(=O)O; βAsp = O=C(O)[C@H](CC(=O)[*:2])N[*:1]; Tic = O=C(O)[C@@H]1Cc2ccccc2CN1; Cit = NC(=O)NCCC[C@H](N)C(=O)O; NMeL = CN[C@@H](CC(C)C)C(=O)O; Ahp(2) = CCCCC[C@H](N)C(=O)O; NMeNle = CCCC[C@H](NC)C(=O)O; Tle = CC(C)(C)[C@H](N)C(=O)O; NHexGly = CCCCCCNCC(=O)O; Nle = CCCC[C@H](N)C(=O)O; Orn = NCCC[C@H](N)C(=O)O; Aun = NCCCCCCCCCCC(=O)O; Dab = NCC[C@H](N)C(=O)O; AEEA = NCCOCCOCC(=O)O

The target of one experiment is T1, mouse VISTA (mVISTA) (Mus musculus, UniProt Q9D659).
T1 construct: expressed in transfected cells; host or cells: Human embryonic kidney 293T cells
T1 sequence (Q9D659 33-308): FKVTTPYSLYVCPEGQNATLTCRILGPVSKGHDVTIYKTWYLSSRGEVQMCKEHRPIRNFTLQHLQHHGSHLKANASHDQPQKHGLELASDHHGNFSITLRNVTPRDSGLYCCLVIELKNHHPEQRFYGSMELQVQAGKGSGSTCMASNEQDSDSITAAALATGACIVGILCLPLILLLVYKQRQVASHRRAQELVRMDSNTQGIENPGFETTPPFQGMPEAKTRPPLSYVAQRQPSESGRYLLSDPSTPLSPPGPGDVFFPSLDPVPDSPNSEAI
Put plainly: Cell-Based Binding High-Content Assay For mVISTA (HC CBA mVISTA). As to conditions: cell-based binding high-content assay; read-out: HC CBA mVISTA IC50. The method, boiled down: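 This high-content binding assay uses HEK293T cells expressing murine VISTA, measuring displacement of 2 nM biotinylated peptide by fluorescent streptavidin imaging. IC50 values come from four-parameter logistic fitting.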
With `CCCCCCN1CC(=O)N[C@@H](Cc2ccc(O)cc2)C(=O)N[C@@H](CC(C)C)C(=O)N[C@@H](CC(N)=O)C(=O)N[C@@H](CCCNC(=N)N)C(=O)N(C)[C@@H](CCCC)C(=O)N[C@@H](CCCCC)C(=O)N2CCC[C@H]2C(=O)N[C@@H](C(C)(C)C)C(=O)N[C@@H](CC(=O)O)C(=O)N[C@H](C(=O)N[C@@H](CC(=O)NCCOCCOCC(=O)N[C@@H](CCN)C(=O)NCCOCCOCC(=O)NCCCCCCCCCCC(=O)O)C(=O)O)CSCC(=O)N[C@@H](Cc2ccccc2)C(=O)N[C@@H](Cc2ccc(O)cc2)C(=O)N[C@@H](CC(=O)O)C1=O` [compound 2329] ({CH2CO}-FYD[NHexGly]YLNR[NMeNle][Ahp(2)]P[Tle]DC[βAsp][AEEA][Dab][AEEA][Aun]-OH; thioether N-14), the negative logarithm of the IC50 (pIC50) is 7.65.

Still in this experiment, the particulars now being: cell-based binding high-content assay; read-out: HC CBA miPrISTA IC50.
Regarding `CCCCCCN1CC(=O)N[C@@H](Cc2ccc(O)cc2)C(=O)N[C@@H](CC(C)C)C(=O)N[C@@H](CC(N)=O)C(=O)N[C@@H](CCCNC(=N)N)C(=O)N[C@@H](CC(C)C)C(=O)N[C@@H](CCCCC)C(=O)N2CCC[C@H]2C(=O)N[C@@H](C(C)C)C(=O)N[C@@H](CO)C(=O)N[C@H](C(=O)NCCOCCOCC(=O)N[C@@H](CC(=O)O)C(=O)NCCOCCOCC(=O)NCCCCCCCCCCC(=O)O)CSCC(=O)N[C@@H](Cc2ccccc2)C(=O)N[C@@H](Cc2ccc(O)cc2)C(=O)N[C@@H](CC(=O)O)C1=O` [compound 2285] ({CH2CO}-FYD[NHexGly]YLNRL[Ahp(2)]PVSC[AEEA]D[AEEA][Aun]-OH; thioether N-14), the pIC50 is 7.82.

For the compound `CCCCCCN1CC(=O)N[C@@H](Cc2ccc(O)cc2)C(=O)N[C@@H](CCCCC)C(=O)NCC(=O)N[C@@H](CCCNC(=N)N)C(=O)N[C@@H](CC(C)C)C(=O)N[C@@H](CCCCC)C(=O)N2CCC[C@H]2C(=O)N[C@@H](C(C)C)C(=O)N[C@@H](CO)C(=O)N[C@H](C(=O)NCCOCCOCC(=O)N[C@@H](CC(=O)O)C(=O)NCCOCCOCC(=O)NCCCCCCCCCCC(=O)O)CSCC(=O)N[C@@H](Cc2ccccc2)C(=O)N[C@@H](Cc2ccc(O)cc2)C(=O)N[C@@H](CC(=O)O)C1=O` [compound 2292] ({CH2CO}-FYD[NHexGly]Y[Ahp(2)]GRL[Ahp(2)]PVSC[AEEA]D[AEEA][Aun]-OH; thioether N-14), the pIC50 was 7.74.

In the case of `CCCCCCN1CC(=O)N[C@@H](Cc2ccc(O)cc2)C(=O)N[C@@H](CCCC)C(=O)N[C@@H](CC(N)=O)C(=O)N[C@@H](CCCNC(=N)N)C(=O)N(C)[C@@H](CCCC)C(=O)N[C@@H](CCCCC)C(=O)N2CCC[C@H]2C(=O)N[C@@H](C(C)C)C(=O)N[C@@H](CC(=O)O)C(=O)N[C@H](C(=O)NCCOCCOCC(=O)N[C@@H](CC(=O)O)C(=O)NCCOCCOCC(=O)NCCCCCCCCCCC(=O)O)CSCC(=O)N[C@@H](Cc2ccccc2)C(=O)N[C@@H](Cc2c[nH]c3ccccc23)C(=O)N[C@@H](CC(=O)O)C1=O` [compound 2293] ({CH2CO}-FWD[NHexGly]Y[Nle]NR[NMeNle][Ahp(2)]PVDC[AEEA]D[AEEA][Aun]-OH; thioether N-14), the pIC50 was 7.59.

For `CCCCCCN1CC(=O)N[C@@H](Cc2ccc(O)cc2)C(=O)N[C@@H](CCCCC)C(=O)NCC(=O)N[C@@H](CCCNC(N)=O)C(=O)N[C@@H](CC(C)C)C(=O)N[C@@H](CCCCC)C(=O)N2CCC[C@H]2C(=O)N[C@@H](C(C)C)C(=O)N[C@@H](CO)C(=O)N[C@H](C(=O)NCCOCCOCC(=O)N[C@@H](CC(=O)O)C(=O)NCCOCCOCC(=O)NCCCCCCCCCCC(=O)O)CSCC(=O)N[C@@H](Cc2ccccc2)C(=O)N[C@@H](Cc2ccc(O)cc2)C(=O)N[C@@H](CC(=O)O)C1=O` [compound 2307] ({CH2CO}-FYD[NHexGly]Y[Ahp(2)]G[Cit]L[Ahp(2)]PVSC[AEEA]D[AEEA][Aun]-OH; thioether N-14), the pIC50 is 7.67.

Consider `CCCCCCN1CC(=O)N[C@@H](Cc2ccc(O)cc2)C(=O)N[C@@H](C(C)C)C(=O)NCC(=O)N[C@@H](CCCNC(N)=O)C(=O)N[C@@H](CC(C)C)C(=O)N[C@@H](CCCCC)C(=O)N2CCC[C@H]2C(=O)N[C@@H](C(C)C)C(=O)N[C@@H](CC(=O)O)C(=O)N[C@H](C(=O)NCCOCCOCC(=O)N[C@@H](CC(=O)O)C(=O)NCCOCCOCC(=O)NCCCCCCCCCCC(=O)O)CSCC(=O)N[C@@H](Cc2ccc3ccccc3c2)C(=O)N[C@@H](Cc2ccc(O)cc2)C(=O)N[C@@H](CC(=O)O)C1=O` [compound 2308] ({CH2CO}-[2Nal]YD[NHexGly]YVG[Cit]L[Ahp(2)]PVDC[AEEA]D[AEEA][Aun]-OH; thioether N-14), for which the pIC50 was 7.84.

`CCCCCCN1CC(=O)N[C@@H](Cc2ccc(O)cc2)C(=O)N[C@@H](CCCC)C(=O)N[C@@H](CC(N)=O)C(=O)N[C@@H](CCCNC(=N)N)C(=O)N(C)[C@@H](CC(C)C)C(=O)N[C@@H](CCCCC)C(=O)N2CCC[C@H]2C(=O)N[C@@H](C(C)C)C(=O)N[C@@H](CO)C(=O)N[C@H](C(=O)NCCOCCOCC(=O)N[C@@H](CC(=O)O)C(=O)NCCOCCOCC(=O)NCCCCCCCCCCC(=O)O)CSCC(=O)N[C@@H](Cc2ccc3ccccc3c2)C(=O)N[C@@H](Cc2ccc(O)cc2)C(=O)N[C@@H](CC(=O)O)C1=O` [compound 2313] ({CH2CO}-[2Nal]YD[NHexGly]Y[Nle]NR[NMeL][Ahp(2)]PVSC[AEEA]D[AEEA][Aun]-OH; thioether N-14): the pIC50 is 7.55.

For the compound `CCCCCCN1CC(=O)N[C@@H](Cc2ccc(O)cc2)C(=O)N[C@@H](CCCC)C(=O)N[C@@H](CC(N)=O)C(=O)N[C@@H](CCCNC(N)=O)C(=O)N2Cc3ccccc3C[C@H]2C(=O)N[C@@H](CCCCC)C(=O)N2CCC[C@H]2C(=O)N[C@@H](C(C)C)C(=O)N[C@@H](CO)C(=O)N[C@H](C(=O)NCCOCCOCC(=O)N[C@@H](CC(=O)O)C(=O)NCCOCCOCC(=O)NCCCCCCCCCCC(=O)O)CSCC(=O)N[C@@H](Cc2ccc3ccccc3c2)C(=O)N[C@@H](Cc2ccc(O)cc2)C(=O)N[C@@H](CC(=O)O)C1=O` [compound 2315] ({CH2CO}-[2Nal]YD[NHexGly]Y[Nle]N[Cit][Tic][Ahp(2)]PVSC[AEEA]D[AEEA][Aun]-OH; thioether N-14), the pIC50 was 7.74.

On to `CCCCCCN1CC(=O)N[C@@H](Cc2ccc(O)cc2)C(=O)N[C@@H](CCCC)C(=O)N[C@@H](CC(N)=O)C(=O)N[C@@H](CCCNC(N)=O)C(=O)N(C)[C@@H](CCCC)C(=O)N[C@@H](CCCCC)C(=O)N2CCC[C@H]2C(=O)N[C@@H](C(C)C)C(=O)N[C@@H](CO)C(=O)N[C@H](C(=O)NCCOCCOCC(=O)N[C@@H](CC(=O)O)C(=O)NCCOCCOCC(=O)NCCCCCCCCCCC(=O)O)CSCC(=O)N[C@@H](Cc2ccc3ccccc3c2)C(=O)N[C@@H](Cc2ccc(O)cc2)C(=O)N[C@@H](CC(=O)O)C1=O` [compound 2319] ({CH2CO}-[2Nal]YD[NHexGly]Y[Nle]N[Cit][NMeNle][Ahp(2)]PVSC[AEEA]D[AEEA][Aun]-OH; thioether N-14), for which the pIC50 is 7.60.

Still in this experiment, the particulars now being: read-out: HC CBA mVISTA IC50.
For the compound `CCCCCCN1CC(=O)N[C@@H](Cc2ccc(O)cc2)C(=O)N[C@@H](CC(C)C)C(=O)N[C@@H](CC(N)=O)C(=O)N[C@@H](CCCN)C(=O)N(C)[C@@H](CCCC)C(=O)N[C@@H](CCCCC)C(=O)N2CCC[C@H]2C(=O)N[C@@H](C(C)(C)C)C(=O)N[C@@H](CO)C(=O)N[C@H](C(=O)NCCOCCOCC(=O)N[C@@H](CCC(=O)NCCOCCOCC(=O)NCCCCCCCCCCC(=O)O)C(=O)O)CSCC(=O)N[C@@H](Cc2ccccc2)C(=O)N[C@@H](Cc2c[nH]c3ccccc23)C(=O)N[C@@H](CC(=O)O)C1=O` [compound 2280] ({CH2CO}-FWD[NHexGly]YLN[Orn][NMeNle][Ahp(2)]P[Tle]SC[AEEA][γGlu][AEEA][Aun]-OH; thioether N-14), the pIC50 was 7.34.

Regarding `CCCCCCN1CC(=O)N[C@@H](Cc2ccc(O)cc2)C(=O)N[C@@H](CC(C)C)C(=O)N[C@@H](CC(N)=O)C(=O)N[C@@H](CCCNC(=N)N)C(=O)N(C)[C@@H](CCCC)C(=O)N[C@@H](CCCCC)C(=O)N2CCC[C@H]2C(=O)N[C@@H](C(C)(C)C)C(=O)N[C@@H](C(C)C)C(=O)N[C@H](C(=O)NCCOCCOCC(=O)N[C@@H](CCC(=O)NCCOCCOCC(=O)NCCCCCCCCCCC(=O)O)C(=O)O)CSCC(=O)N[C@@H](Cc2ccccc2)C(=O)N[C@@H](Cc2c[nH]c3ccccc23)C(=O)N[C@@H](CC(=O)O)C1=O` [compound 2281] ({CH2CO}-FWD[NHexGly]YLNR[NMeNle][Ahp(2)]P[Tle]VC[AEEA][γGlu][AEEA][Aun]-OH; thioether N-14), the pIC50 was 7.50.

As to `CCCCCCN1CC(=O)N[C@@H](Cc2ccc(O)cc2)C(=O)N[C@@H](CC(C)C)C(=O)N[C@@H](CC(N)=O)C(=O)N[C@@H](CCCN)C(=O)N(C)[C@@H](CCCC)C(=O)N[C@@H](CCCCC)C(=O)N2CCC[C@H]2C(=O)N[C@@H](C(C)(C)C)C(=O)N[C@@H](C(C)C)C(=O)N[C@H](C(=O)NCCOCCOCC(=O)N[C@@H](CCC(=O)NCCOCCOCC(=O)NCCCCCCCCCCC(=O)O)C(=O)O)CSCC(=O)N[C@@H](Cc2ccccc2)C(=O)N[C@@H](Cc2c[nH]c3ccccc23)C(=O)N[C@@H](CC(=O)O)C1=O` [compound 2282] ({CH2CO}-FWD[NHexGly]YLN[Orn][NMeNle][Ahp(2)]P[Tle]VC[AEEA][γGlu][AEEA][Aun]-OH; thioether N-14), the pIC50 is 7.46.

As to `CCCCCCN1CC(=O)N[C@@H](Cc2ccc(O)cc2)C(=O)N[C@@H](CC(C)C)C(=O)N[C@@H](CC(N)=O)C(=O)N[C@@H](CCCN)C(=O)N(C)[C@@H](CCCC)C(=O)N[C@@H](CCCCC)C(=O)N2CCC[C@H]2C(=O)N[C@@H](C(C)(C)C)C(=O)N[C@@H](CC(=O)O)C(=O)N[C@H](C(=O)NCCOCCOCC(=O)N[C@@H](CCC(=O)NCCOCCOCC(=O)NCCCCCCCCCCC(=O)O)C(=O)O)CSCC(=O)N[C@@H](Cc2ccccc2)C(=O)N[C@@H](Cc2c[nH]c3ccccc23)C(=O)N[C@@H](CC(=O)O)C1=O` [compound 2283] ({CH2CO}-FWD[NHexGly]YLN[Orn][NMeNle][Ahp(2)]P[Tle]DC[AEEA][γGlu][AEEA][Aun]-OH; thioether N-14), the pIC50 is 7.56.

By pIC50 is commonly meant −log10 of the IC50, conventionally taken in molar units.
